Results: PubChem BioAssay AID248 (DTP/NCI, 2004)
“And” between values parts separate entries of the source, which are not always exact repeats. Identical values can stand only once. Inconclusive results and toxic doses are left out. Rule as the data show it: active = T/C of 150% or more; inactive = T/C below 125%.

Test system: L1210 leukemia ip in BDF1 mice, survival T/C
Experiment: NCI In Vivo Anticancer Drug Screen. Data for tumor model L1210 Leukemia (intraperitoneal) in B6D2F1 (BDF1) mice
Details: endpoint: mean survival time, higher = longer survival
How it was run: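 Value reflects the ratio of survival in compound-treated mice to survival in vehicle-treated controls, with both groups carrying the same transplanted tumor.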

[1] = dose: 100.0 mg/kg/injection, schedule: Q01DX009 (ip), vehicle: Klucel (hydroxypropylcellulose) (HPC)
[2] = dose: 200.0 mg/kg/injection, schedule: Q01DX009 (ip), vehicle: Klucel (hydroxypropylcellulose) (HPC)
[3] = dose: 400.0 mg/kg/injection, schedule: Q01DX009 (ip), vehicle: Klucel (hydroxypropylcellulose) (HPC)
[4] = dose: 100.0 mg/kg/injection, schedule: Q01DX001 (ip), vehicle: Klucel (hydroxypropylcellulose) (HPC)
[5] = dose: 200.0 mg/kg/injection, schedule: Q01DX001 (ip), vehicle: Klucel (hydroxypropylcellulose) (HPC)
[6] = dose: 400.0 mg/kg/injection, schedule: Q01DX001 (ip), vehicle: Klucel (hydroxypropylcellulose) (HPC)
[7] = dose: 100.0 mg/kg/injection, schedule: Q04DX002 (ip), vehicle: Klucel (hydroxypropylcellulose) (HPC)
[8] = dose: 200.0 mg/kg/injection, schedule: Q04DX002 (ip), vehicle: Klucel (hydroxypropylcellulose) (HPC)

Measured: T/C

C/C=C/C=C/COC(=O)CCCCCC
inactive: dose: 100.0 mg/kg/injection, schedule: Q04DX002 (ip), vehicle: saline 98 % of control and 108 % of control | dose: 200.0 mg/kg/injection, schedule: Q04DX002 (ip), vehicle: saline 108 % of control and 119 % of control | dose: 400.0 mg/kg/injection, schedule: Q04DX002 (ip), vehicle: saline 107 % of control | dose: 600.0 mg/kg/injection, schedule: Q04DX002 (ip), vehicle: saline 98 % of control

NC(=O)CSSCC(N)=O
inactive: dose: 100.0 mg/kg/injection, schedule: Q04DX003 (ip), vehicle: saline 98 % of control | dose: 200.0 mg/kg/injection, schedule: Q04DX003 (ip), vehicle: saline 93 % of control

Cc1c[n+]2ccc3ccccc3c2c2ccccc12
inactive: dose: 1.0 mg/kg/injection, schedule: Q01DX015 (ip), vehicle: carboxymethylcellulose (CMC) 100 % of control | dose: 1.25 mg/kg/injection, schedule: Q01DX009 (ip), vehicle: saline 94 % of control | dose: 2.0 mg/kg/injection, schedule: Q01DX015 (ip), vehicle: carboxymethylcellulose (CMC) 105 % of control | dose: 2.5 mg/kg/injection, schedule: Q01DX009 (ip), vehicle: saline 95 % of control | dose: 2.5 mg/kg/injection, schedule: Q04DX003 (ip), vehicle: acetone 103 % of control | dose: 4.0 mg/kg/injection, schedule: Q01DX015 (ip), vehicle: carboxymethylcellulose (CMC) 117 % of control | dose: 5.0 mg/kg/injection, schedule: Q01DX001 (ip), vehicle: acetone 106 % of control | dose: 5.0 mg/kg/injection, schedule: Q01DX009 (ip), vehicle: saline 113 % of control | dose: 5.0 mg/kg/injection, schedule: Q04DX003 (ip), vehicle: acetone 101 % of control | dose: 7.0 mg/kg/injection, schedule: Q01DX009 (ip), vehicle: saline 113 % of control | dose: 8.0 mg/kg/injection, schedule: Q01DX015 (ip), vehicle: carboxymethylcellulose (CMC) 112 % of control | dose: 10.0 mg/kg/injection, schedule: Q01DX001 (ip), vehicle: acetone 117 % of control

C=CC(OC(C)=O)OC(C)=O
inactive: dose: 2.8 mg/kg/injection, schedule: Q01DX Z (ip), vehicle: carboxymethylcellulose (CMC) 94 % of control | dose: 4.2 mg/kg/injection, schedule: Q01DX Z (ip), vehicle: carboxymethylcellulose (CMC) 95 % of control | dose: 6.2 mg/kg/injection, schedule: Q01DX Z (ip), vehicle: carboxymethylcellulose (CMC) 93 % of control | dose: 6.25 mg/kg/injection, schedule: Q01DX009 (ip), vehicle: saline with Tween-80 91 % of control | dose: 6.25 mg/kg/injection, schedule: Q01DX Z (ip), vehicle: carboxymethylcellulose (CMC) 89 % of control | dose: 9.4 mg/kg/injection, schedule: Q01DX Z (ip), vehicle: carboxymethylcellulose (CMC) 98 % of control and 111 % of control | dose: 12.5 mg/kg/injection, schedule: Q01DX009 (ip), vehicle: saline with Tween-80 104 % of control | dose: 12.5 mg/kg/injection, schedule: Q04DX003 (ip), vehicle: saline with Tween-80 103 % of control | dose: 25.0 mg/kg/injection, schedule: Q01DX009 (ip), vehicle: saline with Tween-80 110 % of control | dose: 25.0 mg/kg/injection, schedule: Q04DX003 (ip), vehicle: saline with Tween-80 111 % of control

NC(=S)Nc1ccc(Cc2ccc(NC(N)=S)cc2)cc1
inactive: [1] 98 % of control | [2] 91 % of control | [3] 88 % of control

Cc1ncc(C(C)(O)c2ccc(Cl)cc2)n1Cc1ccccc1 (stereo not drawn)
inactive: [4] 112 % of control | [1] 92 % of control | dose: 100.0 mg/kg/injection, schedule: Q04DX003 (ip), vehicle: Klucel (hydroxypropylcellulose) (HPC) 92 % of control | [5] 98 % of control | [2] 89 % of control | dose: 200.0 mg/kg/injection, schedule: Q04DX003 (ip), vehicle: Klucel (hydroxypropylcellulose) (HPC) 88 % of control | [6] 118 % of control | [3] 92 % of control | dose: 400.0 mg/kg/injection, schedule: Q04DX003 (ip), vehicle: Klucel (hydroxypropylcellulose) (HPC) 92 % of control

CCCCN1CCSC1=S
inactive: dose: 100.0 mg/kg/injection, schedule: Q01DX009 (ip), vehicle: alcohol 93 % of control | dose: 100.0 mg/kg/injection, schedule: Q04DX002 (ip), vehicle: alcohol 100 % of control | dose: 200.0 mg/kg/injection, schedule: Q01DX009 (ip), vehicle: alcohol 96 % of control | dose: 200.0 mg/kg/injection, schedule: Q04DX002 (ip), vehicle: alcohol 87 % of control | dose: 400.0 mg/kg/injection, schedule: Q01DX009 (ip), vehicle: alcohol 86 % of control | dose: 400.0 mg/kg/injection, schedule: Q04DX002 (ip), vehicle: alcohol 103 % of control

O=c1c2[nH]cnc2ncn1Cc1ccccc1
inactive: [4] 102 % of control | [5] 98 % of control | [6] 109 % of control

CC(=O)CCCC(C)C1CCC2[C@H]3CC=C4C[C@H](O)CC[C@@]4(C)C3CC[C@@]12C (stereo partly drawn)
inactive: dose: 50.0 mg/kg/injection, schedule: Q01DX009 (ip), vehicle: Klucel (hydroxypropylcellulose) (HPC) 96 % of control | [1] 100 % of control | [2] 102 % of control

O=[N+]([O-])c1ccc(Cl)c2nonc12
inactive: dose: 1.65 mg/kg/injection, schedule: Q04DX002 (ip), vehicle: Klucel (hydroxypropylcellulose) (HPC) 89 % of control | dose: 3.12 mg/kg/injection, schedule: Q04DX002 (ip), vehicle: Klucel (hydroxypropylcellulose) (HPC) 92 % of control | dose: 6.25 mg/kg/injection, schedule: Q04DX002 (ip), vehicle: Klucel (hydroxypropylcellulose) (HPC) 94 % of control

CCO/C(C)=N/OC(=O)c1ccccc1
inactive: [7] 94 % of control | [8] 110 % of control | dose: 400.0 mg/kg/injection, schedule: Q04DX002 (ip), vehicle: Klucel (hydroxypropylcellulose) (HPC) 94 % of control

CC1(C)N=C(N)Nc2nnc(-c3ccc(F)cc3)n21
inactive: dose: 100.0 mg/kg/injection, schedule: Q04DX003 (ip), vehicle: saline sonified 89 % of control | dose: 200.0 mg/kg/injection, schedule: Q04DX003 (ip), vehicle: saline sonified 101 % of control | dose: 400.0 mg/kg/injection, schedule: Q04DX003 (ip), vehicle: saline sonified 89 % of control

CC1(C)CN1P(=O)(Oc1ccc([N+](=O)[O-])cc1)N1CC1(C)C (stereo not drawn)
inactive: [7] 110 % of control | [8] 108 % of control

CCCCOC(=O)c1cccnc1
inactive: dose: 50.0 mg/kg/injection, schedule: Q04DX003 (ip), vehicle: saline with Tween-80 97 % of control | dose: 100.0 mg/kg/injection, schedule: Q04DX003 (ip), vehicle: saline with Tween-80 94 % of control and 102 % of control | dose: 200.0 mg/kg/injection, schedule: Q04DX003 (ip), vehicle: saline with Tween-80 103 % of control | dose: 400.0 mg/kg/injection, schedule: Q04DX003 (ip), vehicle: saline with Tween-80 91 % of control

CCN(CC)CCCC(C)Nc1cc(N)nc2nc(-c3ccc(Cl)cc3)c(-c3ccc(Cl)cc3)nc12 (stereo not drawn)
inactive: dose: 37.5 mg/kg/injection, schedule: Q01DX009 (ip), vehicle: Klucel (hydroxypropylcellulose) (HPC) 95 % of control | dose: 37.5 mg/kg/injection, schedule: Q04DX003 (ip), vehicle: Klucel (hydroxypropylcellulose) (HPC) 98 % of control | dose: 75.0 mg/kg/injection, schedule: Q01DX001 (ip), vehicle: other 97 % of control | dose: 75.0 mg/kg/injection, schedule: Q01DX009 (ip), vehicle: Klucel (hydroxypropylcellulose) (HPC) 90 % of control | dose: 75.0 mg/kg/injection, schedule: Q04DX003 (ip), vehicle: Klucel (hydroxypropylcellulose) (HPC) 102 % of control | dose: 150.0 mg/kg/injection, schedule: Q04DX003 (ip), vehicle: Klucel (hydroxypropylcellulose) (HPC) 93 % of control

NC(=S)N/N=C/c1nccn1Cc1ccccc1
inactive: [4] 104 % of control | dose: 100.0 mg/kg/injection, schedule: Q01DX001 (ip), vehicle: other 101 % of control | [5] 101 % of control | dose: 200.0 mg/kg/injection, schedule: Q01DX001 (ip), vehicle: other 96 % of control | [6] 104 % of control
